In article PMC10512030, “Prolidase-proline oxidase axis is engaged in apoptosis induction by birch buds flavonol santin in endometrial adenocarcinoma cell line” (Frontiers in Molecular Biosciences, 2023):
Like-named read-outs stand apart in the source and are kept apart here.

Columns and labels:
Format in all cases: cell-based, human
[1] = test system: cervical adenocarcinoma HeLa cells; assay: Cell viability MTT assay, HeLa; conditions: Homo sapiens, HeLa, HeLa
[2] = test system: endometrial adenocarcinoma Ishikawa cells; assay: Cell viability MTT assay, Ishikawa; conditions: Homo sapiens
[3] = test system: normal fibroblasts (dermal fibroblasts CCD25Sk); assay: Cell viability MTT assay, fibroblasts; conditions: Homo sapiens, Fibroblast, Fibroblasts, read-out: IC50 values ± SD in MTT assay
[4] = test system: cervical adenocarcinoma HeLa cells; assay: Cell viability neutral red uptake assay, HeLa; conditions: Homo sapiens
[5] = test system: endometrial adenocarcinoma Ishikawa cells; assay: Cell viability neutral red uptake assay, Ishikawa; conditions: Homo sapiens
[6] = test system: breast epithelial cells MCF 10A; assay: Cell viability MTT assay, MCF 10A; conditions: Homo sapiens, 48 h
HeLa cells [7] = assay: Colony formation assay, HeLa; conditions: then fresh medium 7 days
Ishikawa cells [8] = assay: Colony formation assay, Ishikawa; conditions: then fresh medium 7 days
HeLa cells [9] = assay: Apoptosis assay, annexin V-FITC / propidium iodide flow cytometry, HeLa; conditions: 48 h
Ishikawa cells [10] = assay: Apoptosis assay, annexin V-FITC / propidium iodide flow cytometry, Ishikawa; conditions: 48 h
prolidase [11] = assay: Prolidase activity in homogenates of treated cells; conditions: 48 h
Experimental: The activity of prolidase in cell homogenates was determined according to the method of ([Myara et al., 1982]). Briefly, prolidase was activated by overnight incubation of homogenates with 1 mM MnCl2 at 37°C. Then, the substrate (Gly-Pro, 100 mM) was added to each sample, followed by incubation at 37°C for 1 h. The reaction was stopped with […] trichloracetic acid and samples were then centrifuged at 15,000 × g for 10 min. After adding acetic acid and Chinard’s reagent to collected supernatant, the mixtures were incubated at 90°C for 10 min. Samples were allowed to come to room temperature and then absorbance was measured at 515 nm. Enzyme activity was reported as nanomoles of proline released from the synthetic substrate during 1 min/mg of total proteins of cell homogenate.

p53 = assay: Western immunoblot of p53 in treated cells; conditions: 48 h; for expression of p53 (Western blot): Ishikawa cells
Experimental: Adherent and floating cells were harvested and sonicated. Obtained homogenates were supplemented with 1% protease and phosphatase inhibitor cocktail (#78440, Thermo Fisher Scientific). The Lowry assay was performed to quantify protein content in the homogenates. Proteins (20–40 μg) were resolved on 7.5%, 10%, or 12% SDS-PAGE gels using the Mini-Protean Tetra system (Bio-Rad). Proteins were transferred to nitrocellulose membranes (Bio-Rad) using the Mini Trans-Blot Cell wet blotting system (Bio-Rad). Membranes were blocked with 5% skim milk for 1 h at room temperature and probed overnight at 4°C with primary antibodies. The following antibodies purchased from Cell Signaling Technology were used: anti-caspase-9 antibody (#9508, 1:1,000), anti-caspase-8 antibody (#9746, 1:1,000), anti-caspase-3 antibody (#9662, 1:1,000), anti-caspase-7 antibody (#12827, 1:1,000), anti-PARP antibody (#9542, 1:1,000) and anti-cleaved PARP antibody (#5625, 1:1,000); anti-proline oxidase antibody (sc-376401, 1:1,000) and anti-p53 antibody (sc-126, 1:500) were obtained from Santa Cruz Biotechnology; anti-prolidase antibody (STJ27369, 1:1,000) was purchased from St John’s Laboratory and anti-actin antibody (#A2066, 1:2,000) was obtained from Sigma-Aldrich. After extensive washes, a secondary antibody solution in 5% skim milk (anti-mouse IgG-HRP, Sigma-Aldrich, #A9044, 1:5,000 or anti-rabbit IgG-HRP, Sigma-Aldrich, #A9169, 1:5000) was added for 1 h at room temperature. Membranes were incubated with ECL-HRP substrate (GE Healthcare), and the signal was detected using the BioSpectrum Imaging System (Ultra-Violet Products, Ltd.). Intensity of the bands was quantified by densitometric analysis using VisionWorks LS software (Ultra-Violet Products, Ltd.).

proline oxidase = assay: Western immunoblot of proline oxidase in treated cells; conditions: 48 h
Experimental: (§1) Adherent and floating cells were harvested and sonicated. Obtained homogenates were supplemented with 1% protease and phosphatase inhibitor cocktail (#78440, Thermo Fisher Scientific). The Lowry assay was performed to quantify protein content in the homogenates. Proteins (20–40 μg) were resolved on 7.5%, 10%, or 12% SDS-PAGE gels using the Mini-Protean Tetra system (Bio-Rad). Proteins were transferred to nitrocellulose membranes (Bio-Rad) using the Mini Trans-Blot Cell wet blotting system (Bio-Rad). Membranes were blocked with 5% skim milk for 1 h at room temperature and probed overnight at 4°C with primary antibodies. […] Membranes were incubated with ECL-HRP substrate (GE Healthcare), and the signal was detected using the BioSpectrum Imaging System (Ultra-Violet Products, Ltd.). Intensity of the bands was quantified by densitometric analysis using VisionWorks LS software (Ultra-Violet Products, Ltd.).

prolidase [12] = assay: Western immunoblot of prolidase in treated cells; conditions: santin, 48 h
Experimental: as §1

intracellular ROS = assay: Analysis of intracellular ROS with DCFDA; conditions: santin 1 h
Experimental: The oxidation-sensitive dye, 2′, 7′-dichlorofluorescein diacetate (DCFDA, D6883, Sigma-Aldrich), was used to determine the formation of intracellular ROS. Assay is based on the diffusion of DCFDA into the cell, where it is deacetylated by cellular esterases to a non-fluorescent compound, which is later oxidised by ROS into highly fluorescent 2′, 7′-dichlorofluorescein. […] Cells were treated with santin at concentrations of 6.2, 12.5, and 25 μM for 1, 24, or 48 h. Culture medium was discarded and the cells were washed with PBS and incubated with 10 μM DCFDA at 37°C for 30 min. Cell images were taken with fluorescence microscope.

[13] = 48 h, negative control siRNA transfected cells, 48 h, read-out: IC50, MTT assay
[14] = 48 h, non-transfected cells, 48 h, read-out: IC50, MTT assay
[15] = 48 h, p53-silenced cells, 48 h, read-out: IC50, MTT assay
[16] = 48 h, prolidase-silenced cells, 48 h, read-out: IC50, MTT assay
[17] = 48 h, proline oxidase-silenced cells, 48 h, read-out: IC50, MTT assay
[18] = 24 h, NAC treated (2 mM N-acetyl-L-cysteine preincubation 2 h), read-out: IC50, neutral red uptake assay
[19] = 24 h, read-out: IC50 values ± SD in neutral red uptake assay
[20] = 24 h, without NAC, read-out: IC50, neutral red uptake assay
[21] = 48 h, NAC treated (2 mM N-acetyl-L-cysteine preincubation 2 h), read-out: IC50, neutral red uptake assay
[22] = 48 h, read-out: IC50 values ± SD in neutral red uptake assay
[23] = 48 h, without NAC, read-out: IC50, neutral red uptake assay

## COc1ccc(-c2oc3cc(O)c(OC)c(O)c3c(=O)c2OC)cc1 [santin, 5,7-dihydroxy-3,6,4′-trimethoxyflavone]
[1]; 24 h, 24 h, read-out: IC50 values ± SD in MTT assay
  IC50: 17.8 ± 2 µM
[1]; 48 h, 48 h, read-out: IC50 values ± SD in MTT assay
  IC50: 7 ± 0.8 µM
[1]; [13]
  IC50: 7.3 ± 1.1 µM
[1]; [14]
  IC50: 7.2 ± 0.9 µM
[1]; [15]
  IC50: 10.9 ± 1.9 µM
[1]; [16]
  IC50: 7.8 ± 1 µM
[1]; [17]
  IC50: 11.2 ± 1.3 µM
[2]; 24 h, read-out: IC50 values ± SD in MTT assay
  IC50: 12.9 ± 1.1 µM
[2]; [13]
  IC50: 5.9 ± 0.9 µM
[2]; [14]
  IC50: 5.7 ± 0.8 µM
[2]; [15]
  IC50: 5.9 ± 1.1 µM
[2]; [16]
  IC50: 11.1 ± 1.9 µM
[2]; [17]
  IC50: 14 ± 2 µM
[2]; 48 h, read-out: IC50 values ± SD in MTT assay
  IC50: 5.1 ± 0.9 µM
[3]; 24 h
  IC50: > 50 µM
[3]; 48 h
  IC50: > 50 µM
[4]; [18]
  IC50: 25.6 ± 2.4 µM
[4]; [19]
  IC50: 5.5 ± 1.3 µM
[4]; [20]
  IC50: 18.2 ± 2 µM
[4]; [21]
  IC50: 11.6 ± 1.4 µM
[4]; [22]
  IC50: 5.4 ± 0.8 µM
[4]; [23]
  IC50: 6.9 ± 1.1 µM
[5]; [18]
  IC50: 25.6 ± 2.1 µM
[5]; [19]
  IC50: 6.2 ± 1 µM
[5]; [20]
  IC50: 12.7 ± 1.3 µM
[5]; [21]
  IC50: 11 ± 1.4 µM
[5]; [22]
  IC50: 5.9 ± 1.1 µM
[5]; [23]
  IC50: 4.8 ± 1 µM
[6]
  IC50: 12.1 ± 1.7 µM
HeLa cells [7]; santin 6.2 μM for 48 h
  decrease of number of colonies: 49%
HeLa cells [7]; santin 12.5 μM for 48 h
  decrease of number of colonies: 85%
Ishikawa cells [8]; santin 6.2 μM for 48 h
  decrease of number of colonies: 53%
Ishikawa cells [8]; santin 12.5 μM for 48 h
  decrease of number of colonies: 84%
HeLa cells [9]; santin 6.2 μM
  % early apoptotic cells (annexin V/PI plot, lower right quadrant): 27% ± 4%
  % late apoptotic cells (annexin V/PI plot, upper right quadrant): 30% ± 3%
HeLa cells [9]; santin 12.5 μM
  % early apoptotic cells (annexin V/PI plot, lower right quadrant): 39% ± 5%
  % late apoptotic cells (annexin V/PI plot, upper right quadrant): 38% ± 4%
Ishikawa cells [10]; santin 6.2 μM
  % early apoptotic cells (annexin V/PI plot, lower right quadrant): 35% ± 4%
  % late apoptotic cells (annexin V/PI plot, upper right quadrant): 15% ± 2%
Ishikawa cells [10]; santin 12.5 μM
  % early apoptotic cells (annexin V/PI plot, lower right quadrant): 55% ± 5%
  % late apoptotic cells (annexin V/PI plot, upper right quadrant): 21% ± 3%
Prolidase [11]; HeLa cells, 100 μM santin
  decrease of prolidase activity (minimum value): 71%
Prolidase [11]; Ishikawa cells, 50 μM santin
  increase of prolidase activity (maximum): 160%
p53; HeLa cells, santin 6.2–25 μM
  p53 level (Western blot): significantly upregulated
p53; santin 6.2–12.5 μM
  expression of p53 (Western blot): slightly increased
p53; santin 25–100 μM
  expression of p53 (Western blot): gradually decreased
Proline oxidase; HeLa cells, santin 6.2 and 12.5 μM
  proline oxidase expression (Western blot): increased proline oxidase expression
Proline oxidase; Ishikawa cells, santin
  proline oxidase expression (Western blot): downregulated
Prolidase [12]; HeLa cells
  prolidase expression (Western blot): downregulated prolidase expression
Prolidase [12]; Ishikawa cells
  prolidase expression (Western blot): increased its level
Intracellular ROS; HeLa cells
  ROS generation (DCFDA fluorescence): significant increase
Intracellular ROS; Ishikawa cells
  ROS generation (DCFDA fluorescence): massive ROS generation
